Measured values as given in PMC11483378, “Triazole-Based Thiamine Analogues as Inhibitors of Thiamine Pyrophosphate-Dependent Enzymes: 1,3-Dicarboxylate for Metal Binding” (ACS Omega, 2024).

Experiments:
Porcine PDH E1 = biological target: T1, Porcine PDH E1 (Sus scrofa, UniProt P29804); assay: Porcine PDH E1 inhibitory activity assay (DCPIP reduction); assay type: biochemical
T1 sequence (P29804 31-390): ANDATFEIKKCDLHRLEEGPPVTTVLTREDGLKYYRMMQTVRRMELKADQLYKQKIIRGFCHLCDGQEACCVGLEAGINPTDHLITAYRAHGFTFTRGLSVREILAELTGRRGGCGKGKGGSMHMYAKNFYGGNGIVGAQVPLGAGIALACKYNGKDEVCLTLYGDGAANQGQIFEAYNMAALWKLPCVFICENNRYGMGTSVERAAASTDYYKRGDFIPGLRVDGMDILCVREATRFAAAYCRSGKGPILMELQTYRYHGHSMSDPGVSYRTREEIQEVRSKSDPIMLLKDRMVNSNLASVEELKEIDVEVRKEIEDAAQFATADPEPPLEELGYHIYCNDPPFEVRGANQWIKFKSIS
Protocol: Porcine PDH E1 was purchased from Sigma. Porcine PDH E1 activity was determined by monitoring 2,6-dichlorophenolindophenol (DCPIP) reduction at 600 nm using a microplate reader (CLARIOstar) and conducted as described[5] with some modifications. […] The reaction buffer (50 mM KH2PO4 and 1 mM MgCl2, pH 7) contained thiamine pyrophosphate (TPP) at specified concentrations, 0.25 mM DCPIP, and 2 mg/mL porcine PDH E1. The reaction mixture was preincubated at 37 °C with the inhibitor for 30 min, and then the reaction was initiated by adding pyruvate to a final concentration of 50 mM. To determine the half-maximal inhibitory concentration (IC50), the TPP concentration was set at 60 μM with varying inhibitor concentrations. Specific activity was calculated using the molar extinction coefficient of DCPIP, 21 mM^–1 cm^–1.[28] The IC50 values were calculated from nonlinear regression curve fitting using GraphPad Prism.
Porcine PDH E1 inhibitory activity assay. Porcine PDH E1 was purchased from Sigma. Porcine PDH E1 activity was determined by monitoring 2,6-dichlorophenolindophenol (DCPIP) reduction at 600 nm using a microplate reader (CLARIOstar) and conducted as described3 with some modifications. The […]
buffer (50 mM KH2PO4 and 1 mM MgCl2, pH 7) contained thiamine pyrophosphate (TPP) at specified concentrations, 0.25 mM 2,6-dichlorophenolindophenol (DCPIP), and 2 mg/mL porcine PDH E1. The reaction mixture was preincubated at 37 °C with the inhibitor for 30 min, then reaction was initiated by adding pyruvate to a final concentration of 50 mM. To determine the half-maximal inhibitory concentration (IC50), TPP concentration was set at 60 µM with varying inhibitor concentrations. […]
values were calculated from non-linear regression curve fitting using GraphPad Prism. […]

[1] = Solubility in aqueous buffer / enzyme assay conditions; assay type: physicochemical
E. coli OGDH E1 = E. coli OGDH E1 (Escherichia coli, UniProt P0AFG3); assay: E. coli OGDH E1 inhibitory activity assay (DCPIP reduction); assay type: biochemical; details: compound at 200 μM, assay conditions of previous study
Protocol: E. coli OGDH E1 was from material donated by R. Frank. E. coli OGDH E1 activity was determined by monitoring DCPIP reduction at 600 nm using a microplate reader (CLARIOstar) and conducted as described[5] with some modifications. […] The reaction buffer (50 mM KH2PO4 and 2 mM MgCl2, pH 7) contained TPP at specified concentrations, 0.5 mM DCPIP, and 6.7 mg/mL E. coli OGDH E1. The reaction mixture was preincubated at 37 °C with the inhibitor for 60 min, and then the reaction was initiated by adding α-ketoglutarate to a final concentration of 10 mM. To determine the IC50, the TPP concentration was set at 60 μM with varying inhibitor concentrations. Specific activity was calculated using the molar extinction coefficient of DCPIP, 21 mM^–1 cm^–1.[28] The IC50 values were calculated from nonlinear regression curve fitting using GraphPad Prism.
(§1) Enzyme inhibitory activity assays – methods and results (Figures S1-4) […]
(§2) The compound […]
E. coli OGDH E1 inhibitory activity assay. E. coli OGDH E1 was from material donated by R. Frank. E. coli OGDH E1 activity was determined by monitoring DCPIP reduction at 600 nm using a microplate reader (CLARIOstar) and conducted as described3 with some modifications. The percentage inhibition of compounds against E. coli OGDH E1 was assayed at 250 μM. The reaction buffer (50 mM KH 2PO4 and 2 mM MgCl2, pH 7) contained TPP at specified concentrations, 0.5 mM DCPIP, and 6.7 mg/ml E. coli OGDH E1. The reaction mixture was preincubated at 37 °C with the inhibitor for 60 min, then reaction was initiated by adding α-ketoglutarate to a final concentration of 10 mM. To determine the IC50, TPP concentration was set at 60 µM with varying inhibitor concentrations. Specific activity was […]

[2] = PAMPA (parallel artificial membrane permeability assay); assay type: in vitro ADME
Protocol: PAMPA – methods and results (Table S2)
PAMPA was carried out in 96-well microtiter filter plates obtained from Millipore as described1 with some modifications. Each well of the filter plate was impregnated with 15 µL of 5% hexadecane dissolved in hexane (i.e. total amount of hexadecane: 0.75 µL) for at least 10 minutes in ventilated environment to allow for complete evaporation of hexane. Donor compartments were filled with 200 µL compound-containing donor solutions of compounds dissolved in 5% DMSO, phosphate buffered saline PBS) and connected to acceptor plate prefilled with buffer (5% DMSO in PBS, pH 7.4). The resulting sandwich was incubated at room temperature under gentle shaking and wrapped in wet paper towels to avoid evaporation. After 10 hours, the sandwich was disassembled and the solutions in the acceptor and donor were transferred to a disposable UV-transparent plate. UV absorption was measured at wavelengths between 220 and 340 nm using a microplate reader (CLARIOstar).
Compounds were tested at 500 µM. Calibration to determine concentration of compounds were performed with varying compound concentrations in buffer (5% DMSO in PBS).
The artificial membrane permeability is expressed as fraction absorbed (Fa%)2 or log Pe (log of the effective permeability)1. LogD values at pH 7.4 were calculated using MarvinSketch.
Fa% = 100 ∙CA ∙VA / CD0 ∙ VD where: CA = final drug concentration in the acceptor well (µM)
VA = volume in the acceptor well (cm3)
CD0 = Initial drug concentration in the donor well (µM)
VD = volume in the donor well (cm3) log P (cm/s) = log -ln 1-CA/Cequilibrium
S = surface area (cm2), typically 0.268 cm2
Cequilibrium = theoretical equilibrium concentration = [CD ∙VD+CA ∙VA] / [VD+VA] where: CD = final drug concentration in the donor well (µM)
CA = final drug concentration in the acceptor well (µM)
Table S2. Permeability data.
Compounds Fa (%) PAMPA log Pe (cm/s) cLogD (pH = 7.4)

A. viridans PO = A. viridans PO (Aerococcus viridans, UniProt A9X9K8); assay: A. viridans PO inhibitory activity assay (quinoneimine dye); assay type: biochemical; details: read-out: KM(TPP)
Protocol: A. viridans PO and horseradish peroxidase were purchased from Sigma. A. viridans PO activity was determined by monitoring appearance of quinoneimine dye at 550 nm using a microplate reader (CLARIOstar) and conducted as described[5] with some modifications. […] The reaction buffer (50 mM KH2PO4 and 10 mM MgCl2, pH 5.9) contained TPP at specified concentrations, 10 μM flavin adenine dinucleotide, 0.15% 4-aminoantipyrine, 0.3% N-ethyl-N-(2-hydroxy-3-sulfopropyl)-m-toluidine (EHSPT), 50 μg/mL horseradish peroxidase, and 0.35 U/mL A. viridans PO. The reaction mixture was preincubated at 37 °C with inhibitor for 30 min, and then the reaction was initiated by adding pyruvate to a final concentration of 50 mM. To determine the IC50, TPP concentration was set at 60 μM with varying inhibitor concentrations. One unit of PO activity is defined as the production of 1 μmol of hydrogen peroxide per minute. The IC50 values were calculated from nonlinear regression curve fitting using GraphPad Prism.
as §1, §2
A. viridans PO inhibitory activity assay. A. viridans PO and horseradish peroxidase were purchased from Sigma. A. viridans PO activity was determined by monitoring appearance of quinoneimine dye at 550 nm using a microplate reader (CLARIOstar) and conducted as described3 with some modifications. […]
buffer (50 mM KH2PO4 and 10 mM MgCl2, pH 5.9) contained TPP at specified concentrations, 10 µM flavin adenine dinucleotide (FAD), 0.15% 4-aminoantipyrine, 0.3% N-ethyl-N-(2-hydroxy-3-sulfopropyl)-m-toluidine (EHSPT), 50 µg/mL horseradish peroxidase and 0.35 U/mL A. viridans PO. The reaction mixture was preincubated at 37 °C with inhibitor for 30 min, then reaction was initiated by adding pyruvate to a final concentration of 50 mM. To determine the IC50, TPP concentration was set was set at 60 µM with varying inhibitor concentrations. One unit of PO activity is defined as the production of 1 μmol of hydrogen peroxide per minute. The IC 50 values were calculated from non-linear regression curve fitting using GraphPad Prism. […]

[3] = substrate: Cc1ncc(C[n+]2csc(CCO[P@](=O)(O)OP(=O)(O)O)c2C)c(N)n1; assay: S. cerevisiae PDC inhibitory activity assay (DCPIP reduction); assay type: biochemical, Saccharomyces cerevisiae; details: 37.0 °C
Protocol: S. cerevisiae PDC was purchased from Sigma. S. cerevisiae PDC activity was determined by monitoring DCPIP reduction at 600 nm using a microplate reader (CLARIOstar) and conducted as described[5] with some modifications. […] The reaction buffer (50 mM KH2PO4 and 1 mM MgCl2, pH 7) contained TPP at specified concentrations, 0.27 mM DCPIP, and 0.15 mg/mL S. cerevisiae PDC. The reaction mixture was preincubated at 37 °C with the inhibitor for 60 min, and then the reaction was initiated by adding pyruvate to a final concentration of 70 mM. […] Specific activity was calculated using the molar extinction coefficient of DCPIP, 21 mM^–1 cm^–1.[28] The IC50 values were calculated from nonlinear regression curve fitting using GraphPad Prism.
as §1, §2
S. cerevisiae PDC inhibitory activity assay. S. cerevisiae PDC was purchased from Sigma. S. cerevisiae PDC activity was determined by monitoring DCPIP reduction at 600 nm using a microplate reader (CLARIOstar) and conducted as described3 with some modifications. The percentage inhibition of compounds against S. cerevisiae PDC was assayed at 750 μM. The reaction buffer (50 mM KH 2PO4 and 1 mM MgCl2, pH 7) contained TPP at specified concentrations, 0.27 mM DCPIP, and 0.15 mg/ml S. cerevisiae PDC. […]
calculated from non-linear regression curve fitting using GraphPad Prism. […]

E. coli OGDH E1, sequence (P0AFG3 whole entry): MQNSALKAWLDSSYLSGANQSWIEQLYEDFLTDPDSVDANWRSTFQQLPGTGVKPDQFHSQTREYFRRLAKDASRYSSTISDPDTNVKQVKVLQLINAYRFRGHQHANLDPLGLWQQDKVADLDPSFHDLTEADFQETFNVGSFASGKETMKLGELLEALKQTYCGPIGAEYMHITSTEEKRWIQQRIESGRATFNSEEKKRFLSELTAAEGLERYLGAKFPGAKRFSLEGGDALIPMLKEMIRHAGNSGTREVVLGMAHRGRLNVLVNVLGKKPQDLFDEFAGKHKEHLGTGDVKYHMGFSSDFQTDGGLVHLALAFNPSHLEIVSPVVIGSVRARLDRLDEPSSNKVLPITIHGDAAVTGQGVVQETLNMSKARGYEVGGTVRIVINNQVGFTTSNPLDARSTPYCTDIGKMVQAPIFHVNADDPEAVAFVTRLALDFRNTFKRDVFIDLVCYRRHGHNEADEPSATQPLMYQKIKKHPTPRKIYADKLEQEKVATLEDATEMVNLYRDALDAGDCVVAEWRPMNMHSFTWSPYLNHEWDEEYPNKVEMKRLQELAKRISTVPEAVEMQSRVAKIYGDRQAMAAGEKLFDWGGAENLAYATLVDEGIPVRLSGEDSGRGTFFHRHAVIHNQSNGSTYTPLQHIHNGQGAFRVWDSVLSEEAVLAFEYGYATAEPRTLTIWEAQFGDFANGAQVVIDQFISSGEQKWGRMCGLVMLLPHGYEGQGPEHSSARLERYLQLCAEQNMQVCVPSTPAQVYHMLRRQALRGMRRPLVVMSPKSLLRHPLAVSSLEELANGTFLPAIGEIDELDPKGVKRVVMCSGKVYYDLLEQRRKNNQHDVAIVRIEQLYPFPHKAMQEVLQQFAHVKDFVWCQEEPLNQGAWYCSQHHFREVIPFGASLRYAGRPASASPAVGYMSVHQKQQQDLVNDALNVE
A. viridans PO, sequence (A9X9K8 entry or part of it): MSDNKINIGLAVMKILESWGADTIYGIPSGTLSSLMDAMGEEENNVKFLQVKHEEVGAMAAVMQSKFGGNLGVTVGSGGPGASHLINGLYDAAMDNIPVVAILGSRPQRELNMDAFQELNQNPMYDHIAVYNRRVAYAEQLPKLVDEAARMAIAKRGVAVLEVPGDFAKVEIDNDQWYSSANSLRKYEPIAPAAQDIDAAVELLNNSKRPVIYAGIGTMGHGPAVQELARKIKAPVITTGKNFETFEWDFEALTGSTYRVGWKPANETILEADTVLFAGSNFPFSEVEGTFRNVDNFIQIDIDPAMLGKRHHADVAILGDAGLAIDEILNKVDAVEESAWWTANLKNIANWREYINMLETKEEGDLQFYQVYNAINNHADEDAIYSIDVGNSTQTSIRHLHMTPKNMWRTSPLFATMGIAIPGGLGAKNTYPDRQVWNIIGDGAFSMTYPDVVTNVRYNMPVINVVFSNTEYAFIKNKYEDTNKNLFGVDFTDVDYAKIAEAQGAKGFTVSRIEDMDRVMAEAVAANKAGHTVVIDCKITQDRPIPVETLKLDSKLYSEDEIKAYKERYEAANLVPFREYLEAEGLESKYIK

With CCC(CC)COC(=O)[C@H](C)NP(=O)(OCCc1cn(Cc2cnc(C)nc2N)nn1)Oc1ccccc1 (stereo partly drawn) [compound 12] the inhibition (Porcine PDH E1; compound at 10 μM, assay conditions of previous study) was “no inhibition”, the inhibition (Porcine PDH E1; compound at 100 μM) was “no inhibition” and the “solubility under the enzyme assay conditions” value ([1]; OGDH E1 assay, 300 μM) was “insufficiently soluble”. For the same molecule, the solubility ([1]; PBS with 5% DMSO, aqueous with cosolvent or surfactant or cyclodextrin, kinetic from dmso stock, read-out: solubility in aqueous environments) was less than 300 µM, the “solubility under the enzyme assay conditions” value ([1]; PDC assay conditions, 1300 μM) was “not sufficiently soluble” and the “solubility under the enzyme assay conditions” value ([1]; PO assay conditions, 400 μM) was “not sufficiently soluble”. The inhibition (E. coli OGDH E1) was “no inhibition”, the “membrane permeability in PAMPA (in words)” value ([2]; PAMPA) was “membrane-permeable” and the Papp at 10 h, 500 µM ([2]; PAMPA, compounds at 500 µM, 5% DMSO in PBS pH 7.4, 10 hours, room temperature, read-out: PAMPA log Pe (converted)) was 7.94 ×10⁻⁶ cm/s. The “Fa (fraction absorbed)” value ([2]; compounds at 500 µM, 5% DMSO in PBS pH 7.4, 10 hours, room temperature) was 48%.

Work on Cc1ncc(C[n+]2csc(CCO[P@](=O)(O)OP(=O)(O)O)c2C)c(N)n1 [TPP, thiamine pyrophosphate] yielded a Km (A. viridans PO) of 5 µM.

B1: S. cerevisiae PDC (Saccharomyces cerevisiae S288C) (protein)
chain: SEITLGKYLFERLKQVNVNTVFGLPGDFNLSLLDKIYEVEGMRWAGNANELNAAYAADGYARIKGMSCIITTFGVGELSALNGIAGSYAEHVGVLHVVGVPSISAQAKQLLLHHTLGNGDFTVFHRMSANISETTAMITDIATAPAEIDRCIRTTYVTQRPVYLGLPANLVDLNVPAKLLQTPIDMSLKPNDAESEKEVIDTILALVKDAKNPVILADACCSRHDVKAETKKLIDLTQFPAFVTPMGKGSIDEQHPRYGGVYVGTLSKPEVKEAVESADLILSVGALLSDFNTGSFSYSYKTKNIVEFHSDHMKIRNATFPGVQMKFVLQKLLTTIADAAKGYKPVAVPARTPANAAVPASTPLKQEWMWNQLGNFLQEGDVVIAETGTSAFGINQTTFPNNTYGISQVLWGSIGFTTGATLGAAFAAEEIDPKKRVILFIGDGSLQLTVQEISTMIRWGLKPYLFVLNNDGYTIEKLIHGPKAQYNEIQGWDHLSLLPTFGAKDYETHRVATTGEWDKLTQDKSFNDNSKIRMIEIMLPVFDAPQNLVEQAKLTAATNAKQ
notes: purchased Sigma
B1 showed a Km [3] of 15 µM.
